Measured values from patent US20090197957A1, “Methods and compositions for the treatment of pain” (Nuon Therapeutics, Inc., priority 2005, published 2009).
“And” between values parts separate entries of the source, which are not always exact repeats. Equal values may be shown once. “Also recorded” adds a separate entry of the source.

Assays:
[1] = tested on: acetic acid-induced writhing; experiment: Analgesia, acetic acid writhing in mice (Example 3); format: in vivo, mouse; settings: for No. of Writhing Average: group of 5 mice; for % Inhibition: relative to vehicle control; for No. of Writhing Individual: single mice
Method: 3-Hydroxyanthranilic acid was evaluated for possible analgesic activity in mouse acetic acid-induced pain response assay.
3-Hydroxyanthranilic acid was purchased from Sigma (USA) by MDS Pharma Services-Taiwan Ltd. and administered orally at the doses of 400, 200 and 100 mg/kg for analgesia, acetic acid-induced writhing assay. 2% Tween 80 was used as the vehicle.
Male CD-1 (Crl.) mice provided by BioLasco Taiwan (under Charles River Laboratories Technology Licensee) were used. Space allocation for 10 animals was 29×18×13 cm. All animals were maintained in a controlled temperature (23° C.-24° C.) and humidity (60%-70%) environment with 12 hours light dark cycles for at least one week in MDS Pharma Services—Taiwan Laboratory prior to use. Free access to standard lab chow for Mice (LabDiet Rodent Diet, PMI Nutrition International, USA) and tap water was granted. All aspects of this work including housing, experimentation and disposal of animals were performed in general accordance with the Guide for the Care and Use of Laboratory Animals (National Academy Press, Washington, D.C., 1996).
Test substance was administered orally to groups of 5 CD-1 (Crl.) derived male or female mice weighing 24±2 g, 2 hour before injection of acetic acid (0.5%, 20 ml/kg IP). Reduction in the number of writhes by 50 percent or more (≧50%) per group of animals observed during the 5 to 10 minute period after acetic acid administration, relative to a vehicle-treated control group, indicates possible analgesic activity.
Test substance was administered orally to groups of 5 mice 1 hour before injection of 0.5% Acetic Acid (20 ml/kg IP). The number of writhing per group of animals observed during the 5 to 10 minute period after acetic acid challenge was observed. Reduction in the number of writhing by 50 percent or more (≧50%) relative to the vehicle-treated control group indicates possible analgesic activity.

IL-10 = experiment: Serum IL-10 in mice with established CIA (ELISA); format: in vivo; settings: treated for 10 days, 100, 200 or 400 mg/kg/day, listed as 3,4-DAA
Method: FIG. 3 is a graphical representation depicting that treatment with 3,4-DAA leads to increased IL-10 levels in vivo. Mice with established CIA were treated with 3,4-DAA or vehicle (n=7) for 10 days (see FIG. 2), then bled. IL-10 in the sera was measured by ELISA.

Compound	No. of Writhing Average ([1]; 100 mg/kg PO)	% Inhibition ([1]; 100 mg/kg PO) [%]	No. of Writhing Individual ([1]; 100 mg/kg PO)	No. of Writhing Average ([1]; 200 mg/kg PO)	% Inhibition ([1]; 200 mg/kg PO) [%]	No. of Writhing Individual ([1]; 200 mg/kg PO)	No. of Writhing Individual ([1]; 400 mg/kg PO before acetic acid (0.5%, 20 ml/kg IP), 5 to 10 minute period)	No. of Writhing Average ([1]; 400 mg/kg PO)	% Inhibition ([1]; 400 mg/kg PO) [%]	significant analgesic activity (≧50% inhibition of writhing relative to vehicle) ([1]; 400, 200 and 100 mg/kg PO)	circulating IL-10 levels (sera) (IL-10)
Nc1c(O)cccc1C(=O)O [3-Hydroxyanthranilic acid]	13	0	18 and 12 (2×) and 13 and 10	12	8	16 and 9 and 12 and 10 and 15	5 (2×) and 6 and 14 and 12	8	38	did not demonstrate any significant analgesic activity	
COc1ccc(/C=C/C(=O)Nc2ccccc2C(=O)O)cc1OC [Tranilast, 2-[[3-(3,4-dimethoxyphenyl)-1-oxo-2-propenyl]amino]benzoic acid]											dose-dependent increase; also recorded: increased
